In series [1] the test system is Boophilus microplus. As to the kind of experiment: Boophilus microplus injection test. It counts as in vivo. The following applies: after 7 days, laying of fertile eggs. As to the method:
Solvent: dimethyl sulfoxide […] The animals are transferred into dishes and kept in a climate-controlled room. Efficacy is assessed after 7 days by laying of fertile eggs. Eggs which are not visibly fertile are stored in a climate-controlled cabinet until the larvae hatch after about 42 days.

The test system of series [2] is Lucilia cuprina. Briefly: Lucilia cuprina test. As to conditions: L1 larvae, kill after 2 days. It counts as in vivo. Here is the method: (§1) Solvent: dimethyl sulfoxide
(§2) To produce a suitable preparation of active compound, 10 mg of active compound are mixed with 0.5 ml of dimethyl sulfoxide, and the concentrate is diluted with water to the desired concentration.
About 20 L1 larvae of the Australian sheep blowfly (Lucilia cuprina) are transferred into a test vessel containing minced horsemeat and the active compound formulation of the desired concentration.
After 2 days, the kill in % is determined. 100% means that all the larvae have been killed; 0% means that no larvae have been killed.

Series [3] relates to Ctenocephalides felis. Briefly: Ctenocephalides felis oral test. It counts as in vivo. The following applies: kill after 2 days. The text has this: Solvent: dimethyl sulfoxide […] Dilution with citrated cattle blood gives the desired concentration. About 20 unfed adult cat fleas (Ctenocephalides felis) are placed into a chamber which is closed at the top and bottom with gauze. A metal cylinder whose bottom end is closed with parafilm is placed onto the chamber. The cylinder contains the blood/active ingredient formulation, which can be imbibed by the fleas through the parafilm membrane.

The subject of series [4] is Phaedon cochleariae. As to the kind of experiment: Phaedon cochleariae spray test. As to conditions: application rate 100 g/ha, larvae on Chinese cabbage leaf discs, after 7 days. It counts as in vivo. As to the method:
Solvent: 78.0 parts by weight of acetone • • 1.5 parts by weight of dimethylformamide Emulsifier: alkylaryl polyglycol ether […] To produce further test concentrations, the formulation is diluted with emulsifier-containing water. Discs of Chinese cabbage leaves (Brassica pekinensis) are sprayed with an active ingredient formulation of the desired concentration and, after drying, populated with larvae of the mustard beetle (Phaedon cochleariae).

Series [5] relates to Spodoptera frugiperda. As to the kind of experiment: Spodoptera frugiperda spray test. As to conditions: application rate 100 g/ha, caterpillars on maize leaf discs, after 7 days. The format is in vivo. As to the method:
Solvent: 78.0 parts by weight of acetone • • 1.5 parts by weight of dimethylformamide Emulsifier: alkylaryl polyglycol ether […] To produce further test concentrations, the formulation is diluted with emulsifier-containing water. Leaf discs of maize (Zea mays) are sprayed with an active compound formulation of the desired concentration and, after drying, populated with caterpillars of the armyworm (Spodoptera frugiperda).

In series [6] the test system is Rhipicephalus sanguineus. Briefly: Rhipicephalus sanguineus in vitro contact test with adult brown dog ticks. The format is in vivo. The following applies: after 48 h, dead or moribund ticks. As to the method:
After the solvent has evaporated off, the tubes are populated with 5-10 adult dog ticks (Rhipicephalus sanguineus), sealed with a perforated plastic lid and incubated in a horizontal position in the dark at room temperature and ambient humidity. After 48 h, efficacy is determined. To this end, the ticks are knocked to the base of the tube and incubated on a hotplate at 45-50° C. for not more than 5 min. Ticks which remain motionless on the base or move in such an uncoordinated manner that they are unable to deliberately avoid the heat by climbing upwards are considered to be dead or moribund.

The test system of series [7] is Ctenocephalides felis. Briefly: Ctenocephalides felis in vitro contact test with adult cat fleas. The format is in vivo. As to conditions: application rate 5 μg/cm^2 (500 g/ha), after 48 h, dead or moribund fleas. As to the method:
After the solvent has evaporated off, the tubes are populated with 5-10 adult cat fleas (Ctenocephalides felis), sealed with a perforated plastic lid and incubated in a horizontal position at room temperature and ambient humidity. After 48 h, efficacy is determined. To this end, the tubes are stood upright and the fleas are knocked to the base of the tube. Fleas which remain motionless at the base or move in an uncoordinated manner are considered to be dead or moribund.

A short description of series [8]: logP determination by HPLC on reversed-phase column (EEC Directive 79/831 Annex V.A8). The following applies: Table 1; HPLC C18, acetonitrile/water with formic acid. It counts as physicochemical.
Series [9] deals with Musca domestica. Briefly: Musca domestica test. The following applies: adult houseflies, kill after 2 days. The format is in vivo. Here is the method:
as §1, §2
Vessels containing a sponge treated with sugar solution and the active ingredient formulation of the desired concentration are populated with 10 adult houseflies (Musca domestica)).
After 2 days, the kill in % is determined. 100% means that all of the flies have been killed; 0% means that none of the flies have been killed.

The subject of series [10] is Tetranychus urticae. Briefly: Tetranychus urticae spray test, OP-resistant. It counts as in vivo. The following applies: application rate 100 g/ha, all stages on bean leaf discs, after 6 days. Here is the method: Solvent: 78.0 parts by weight of acetone • • 1.5 parts by weight of dimethylformamide Emulsifier: alkylaryl polyglycol ether […] To produce further test concentrations, the formulation is diluted with emulsifier-containing water. Discs of bean leaves (Phaseolus vulgaris) infested with all stages of the greenhouse red spider mite (Tetranychus urticae) are sprayed with an active ingredient formulation of the desired concentration.

Where [11] appears, read: application rate 100 ppm in citrated cattle blood.
Setting [12] is: application rate 1 μg/cm^2 (100 g/ha).
Setting [13] is: application rate 5 μg/cm^2 (500 g/ha).

In the case of `Cc1cc(C(F)(C(F)(F)F)C(F)(F)F)cc(C(F)(F)F)c1-n1cc(-c2cc(NC(=O)c3cocn3)ccc2F)cn1` [Example 2-12], the efficacy in series [1] (application rate 20 μg/animal) was determined as 100%; in series [2] (application rate 100 ppm), 90%; in series [3] (setting [11]), 95%; in [4], 100%; in series [5], 100%; in series [6] (setting [12]), 100%.
For `Cc1cc(C(F)(C(F)(F)F)C(F)(F)F)cc(C)c1-n1cc(-c2ccc(F)c(NC(=O)c3cncnc3)c2)cn1` [Example 15], the efficacy in series [7], in [1] (application rate 20 μg/animal), in series [2] (application rate 100 ppm), in [3] (setting [11]), in series [4] and in series [5] was 100% each time. This compound also displayed an efficacy in series [9] (application rate 100 ppm) of 100%. The lgP result in series [8] is listed as “lgP 3.95”.
In the case of `Cc1ncc(-c2cnn(-c3c(Cl)cc(C(F)(C(F)(F)F)C(F)(F)F)cc3Cl)c2)cc1NC(=O)c1ccc(F)cc1` [Example 17], the efficacy in series [7], in series [1] (application rate 4 μg/animal), in series [2] (application rate 20 ppm), in [3] (application rate 20 ppm in citrated cattle blood), in [4] and in series [5] was 100% throughout. Also, the efficacy in [10] and in series [9] (application rate 20 ppm) was 100% each time.
In the case of `O=C(Nc1cc(-c2cnn(-c3c(Cl)cc(C(F)(C(F)(F)F)C(F)(F)F)cc3Cl)c2)cnc1F)c1ccncc1` [Example 19], the efficacy in [7], in series [1] (application rate 20 μg/animal), in series [2] (application rate 100 ppm), in [3] (setting [11]), in series [4] and in series [5] was 100% in each case. The efficacy in series [10] and in series [9] (application rate 100 ppm) was 100% in each case.
Take `Cc1cc(C(F)(C(F)(F)F)C(F)(F)F)cc(C)c1-n1cc(-c2ccc(N(C)C)c(NC(=O)c3ccncc3)c2)cn1` [Example 20]: the efficacy in series [7], in series [1] (application rate 20 μg/animal), in series [3] (setting [11]), in series [4], in [5] and in series [10] was 100% in each case. This compound also registered an efficacy in series [9] (application rate 100 ppm) of 90%.
As for `Cc1cc(C(F)(C(F)(F)F)C(F)(F)F)cc(C(F)(F)F)c1-n1cc(-c2ccc(F)c(NC(=O)c3ccc(F)cc3)c2F)cn1` [Example 23], the efficacy in series [1] (application rate 20 μg/animal) was found to be 100%; in [2] (application rate 100 ppm) it was 100%; in series [3] (setting [11]), 100%; in series [4] it was 100%; in [5] it was 100%; in series [9] (application rate 100 ppm), 80%. In [6] (setting [12]), this compound displayed an efficacy of 100%.
As to `COc1cc(C(=O)Nc2cc(-c3cnn(-c4c(C)cc(C(F)(C(F)(F)F)C(F)(F)F)cc4C(F)(F)F)c3)cnc2Cl)ccc1F` [Example 24], the efficacy in series [1] (application rate 20 μg/animal), in [2] (application rate 100 ppm), in series [3] (setting [11]), in series [4], in series [5] and in [10] was 100% throughout. The efficacy in series [9] (application rate 100 ppm) and in series [6] (setting [13]) was 100% each time.
In the case of `Cc1cc(C(F)(C(F)(F)F)C(F)(F)F)cc(C(F)(F)F)c1-n1cc(-c2ccc(F)c(NC(=O)c3ccncc3)c2F)cn1` [Example 25], the efficacy in [7], in series [1] (application rate 20 μg/animal), in series [2] (application rate 100 ppm), in [3] (setting [11]), in series [4] and in series [5] was 100% in each case. Besides, the efficacy in series [10] and in series [9] (application rate 100 ppm) was 100% throughout.
As for `COc1cccc(C(=O)Nc2cc(-c3cnn(-c4c(C)cc(C(F)(C(F)(F)F)C(F)(F)F)cc4C(F)(F)F)c3)ccc2F)c1` [Example 32], the efficacy in [7], in [1] (application rate 20 μg/animal), in series [2] (application rate 100 ppm), in [3] (setting [11]), in series [4] and in series [5] was 100% in each case. For the same compound, in series [9] (application rate 100 ppm), the efficacy was 90%.
In the case of `Cc1cc(C(F)(C(F)(F)F)C(F)(F)F)cc(C(F)(F)F)c1-n1cc(-c2ccc(F)c(NC(=O)c3ccc(C#N)nc3)c2)cn1` [Example 46], the efficacy in series [7], in series [1] (application rate 20 μg/animal), in series [2] (application rate 100 ppm), in series [3] (setting [11]), in series [4] and in [5] was 100% throughout. The compound also had an efficacy in [9] (application rate 100 ppm) of 100%.
On to `Cc1cc(C(F)(C(F)(F)F)C(F)(F)F)cc(C(F)(F)F)c1-n1cc(-c2ccc(F)c(NC(=O)c3ccnc(F)c3)c2)cn1` [Example 51], for which the efficacy in series [7], in series [1] (application rate 20 μg/animal), in [2] (application rate 100 ppm), in [3] (setting [11]), in series [4] and in series [5] was 100% in each case. The efficacy is 90% in series [10] and 100% in [9] (application rate 100 ppm).
Turning to `Cc1cnccc1C(=O)Nc1cc(-c2cnn(-c3c(C)cc(C(F)(C(F)(F)F)C(F)(F)F)cc3C(F)(F)F)c2)ccc1F` [Example 54], the efficacy in series [7], in series [1] (application rate 20 μg/animal), in series [2] (application rate 100 ppm), in series [3] (setting [11]), in series [4] and in [5] was 100% throughout. Also, the efficacy in series [10] and in [9] (application rate 100 ppm) was 100% in each case.
As for `Cc1cc(C(F)(C(F)(F)F)C(F)(F)F)cc(C(F)(F)F)c1-n1cc(-c2ccc(F)c(NC(=O)C3CSC3)c2)cn1` [Example 66], the efficacy in series [1] (application rate 20 μg/animal), in series [2] (application rate 100 ppm), in series [3] (setting [11]), in [4], in series [5] and in [10] was 100% throughout. Besides, the efficacy in series [9] (application rate 100 ppm) and in series [6] (setting [13]) was 100% in each case.
As for `Cc1cc(C(F)(C(F)(F)F)C(F)(F)F)cc(C(F)(F)F)c1-n1cc(-c2cccc(NC(=O)c3ccncc3)c2F)cn1` [Example 68], the efficacy in [7], in series [1] (application rate 20 μg/animal), in series [2] (application rate 100 ppm), in series [3] (setting [11]), in [4] and in series [5] was 100% throughout. Further, the efficacy in [10] and in [9] (application rate 100 ppm) was 100% throughout.
As to `Cc1cc(C(F)(C(F)(F)F)C(F)(F)F)cc(C(F)(F)F)c1-n1cc(-c2cccc(NC(=O)c3cocn3)c2F)cn1` [Example 77], the efficacy in [1] (application rate 20 μg/animal), in [2] (application rate 100 ppm), in series [3] (setting [11]), in series [4], in series [5] and in series [9] (application rate 100 ppm) was 100% in each case. For the same compound, the efficacy in series [6] (setting [12]) is 100%.

The values above are taken from patent US10202351B2, “Pyrazolyl derivatives as pest control agents” (BAYER ANIMAL HEALTH GMBH, priority 2015, dated 2019).
